Assay results reported in US20150087673A1, “METHODS FOR USING AND BIOMARKERS FOR AMPK-ACTIVATING COMPOUNDS” (RIGEL PHARMACEUTICALS, INC., priority 2013, published 2015).

System: AMPK
Assay: AMPK activation assay (enzyme-linked immunosorbent assay)
Type: cell-based
Summary of the method: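 Compounds were tested for their capacity to activate the kinase using standard, commercially available kit reagents and procedures.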

Row | SMILES | EC50 [nM]
1 | O=C(Nc1ccc(Oc2ccc(F)cc2)nc1)c1ccc(C(=O)N2CCC(Oc3ccc(NS(=O)(=O)C4CC4)cc3)CC2)nc1 [Compound 449, 6-(4-(4-(cyclopropanesulfonamido)phenoxy)piperidine-1-carbonyl)-N-(6-(4-fluorophenoxy)pyridin-3-yl)nicotinamide] | 1000 to 5000
2 | N#Cc1ccc(CN2CCC(NC(=O)c3ccc(C(=O)N4CCC(Oc5ccc(S(=O)(=O)C(F)(F)F)cc5)CC4)nc3)CC2)cc1 [Compound 450, N-(1-(4-cyanobenzyl)piperidin-4-yl)-6-(4-(4-(trifluoromethylsulfonyl)phenoxy)piperidine-1-carbonyl)nicotinamide] | < 500
3 | COc1ccc(C(=O)C2CCN(C(=O)c3ccc(C(=O)N[C@@H]4CCN(Cc5ccc(C#N)cc5)C[C@H]4F)cn3)CC2)cc1 [Compound 452, N-((3R,4R)-1-(4-cyanobenzyl)-3-fluoropiperidin-4-yl)-6-(4-(4-methoxybenzoyl)piperidine-1-carbonyl)nicotinamide] | < 500
4 | COc1ccc(C(=O)C2CCN(C(=O)c3ccc(C(=O)N[C@H]4CCN(Cc5ccc(C#N)cc5)C[C@@H]4F)cn3)CC2)cc1 [Compound 453, N-((3S,4S)-1-(4-cyanobenzyl)-3-fluoropiperidin-4-yl)-6-(4-(4-methoxybenzoyl)piperidine-1-carbonyl)nicotinamide] | < 500
5 | O=C(NC1CCN(Cc2ccc(OC(F)(F)F)cc2)CC1)c1ccc(C(=O)N2CCC(Oc3ccc(C(=O)C4CC4)cc3)CC2)nc1 [Compound 455, 6-(4-(4-(cyclopropanecarbonyl)phenoxy)piperidine-1-carbonyl)-N-(1-(4-(trifluoromethoxy)benzyl)piperidin-4-yl)nicotinamide] | < 500
6 | N#Cc1ccc(CN2CCC(NC(=O)c3ccc(C(=O)N4CCC(Oc5ccc(C(=O)C6CC6)cc5)CC4)nc3)CC2)cc1 [Compound 456, N-(1-(4-cyanobenzyl)piperidin-4-yl)-6-(4-(4-(cyclopropanecarbonyl)phenoxy)piperidine-1-carbonyl)nicotinamide] | < 500
7 | O=C(Nc1ccc(Oc2ccc(F)cc2)nc1)c1ccc(C(=O)N2CCC(Oc3ccc(C(=O)C4CC4)cc3)CC2)nc1 [Compound 457, 6-(4-(4-(cyclopropanecarbonyl)phenoxy)piperidine-1-carbonyl)-N-(6-(4-fluorophenoxy)pyridin-3-yl)nicotinamide] | < 500
8 | COc1ccc(CN2CCC(NC(=O)c3ccc(C(=O)N4CCC(Oc5ccc(C(=O)C6CC6)cc5)CC4)nc3)CC2)cc1 [Compound 458, 6-(4-(4-(cyclopropanecarbonyl)phenoxy)piperidine-1-carbonyl)-N-(1-(4-methoxybenzyl)piperidin-4-yl)nicotinamide] | < 500
9 | CS(=O)(=O)c1ccc(OC2CCN(C(=O)c3ccc(C(=O)Nc4ccc(Oc5ccc(C#N)cc5)nc4)cn3)CC2)cc1 [Compound 459, N-(6-(4-cyanophenoxy)pyridin-3-yl)-6-(4-(4-(methylsulfonyl)phenoxy)piperidine-1-carbonyl)nicotinamide] | < 500
10 | COc1ccc(C(=O)C2CCN(C(=O)c3ccc(C(=O)Nc4ccc(Oc5ccc(C#N)cc5)nc4)cn3)CC2)cc1 [Compound 460, N-(6-(4-cyanophenoxy)pyridin-3-yl)-6-(4-(4-methoxybenzoyl)piperidine-1-carbonyl)nicotinamide] | < 500
11 | COc1ccc(C(=O)C2CCN(C(=O)c3ccc(C(=O)Nc4ccc(Oc5ccc(C(C)=O)cc5)nc4)cn3)CC2)cc1 [Compound 462, N-(6-(4-acetylphenoxy)pyridin-3-yl)-6-(4-(4-methoxybenzoyl)piperidine-1-carbonyl)nicotinamide] | < 500
12 | N#Cc1ccc(Oc2ccc(NC(=O)c3ccc(C(=O)N4CCC(C(=O)c5ccc(F)cc5F)CC4)nc3)cn2)cc1 [Compound 463, N-(6-(4-cyanophenoxy)pyridin-3-yl)-6-(4-(2,4-difluorobenzoyl)piperidine-1-carbonyl)nicotinamide] | < 500
13 | CC(=O)c1ccc(Oc2ccc(NC(=O)c3ccc(C(=O)N4CCC(C(=O)c5ccc(F)cc5F)CC4)nc3)cn2)cc1 [Compound 464, N-(6-(4-acetylphenoxy)pyridin-3-yl)-6-(4-(2,4-difluorobenzoyl)piperidine-1-carbonyl)nicotinamide] | < 500
14 | COc1ccc(C(=O)C2CCN(C(=O)c3ccc(C(=O)Nc4ccc(Oc5ccc(S(C)(=O)=O)cc5)nc4)cn3)CC2)cc1 [Compound 465, 6-(4-(4-methoxybenzoyl)piperidine-1-carbonyl)-N-(6-(4-(methylsulfonyl)phenoxy)pyridin-3-yl)nicotinamide] | < 500
15 | CS(=O)(=O)c1ccc(Oc2ccc(NC(=O)c3ccc(C(=O)N4CCC(C(=O)c5ccc(F)cc5F)CC4)nc3)cn2)cc1 [Compound 466, 6-(4-(2,4-difluorobenzoyl)piperidine-1-carbonyl)-N-(6-(4-(methylsulfonyl)phenoxy)pyridin-3-yl)nicotinamide] | < 500
16 | COc1ccc(C(=O)C2CCN(C(=O)c3ccc(C(=O)Nc4ccc(S(=O)(=O)c5ccc(F)cc5)nc4)cn3)CC2)cc1 [Compound 467, N-(6-(4-fluorophenylsulfonyl)pyridin-3-yl)-6-(4-(4-methoxybenzoyl)piperidine-1-carbonyl)nicotinamide] | 1000 to 5000

Row | SMILES | EC50 [nM]
17 | COc1ccc(C(=O)C2CCN(C(=O)c3ccc(C(=O)Nc4ccc(Oc5ccc(C#N)cc5)cn4)cn3)CC2)cc1 [Compound 468, N-(5-(4-cyanophenoxy)pyridin-2-yl)-6-(4-(4-methoxybenzoyl)piperidine-1-carbonyl)nicotinamide] | < 500
18 | N#Cc1ccc(Oc2ccc(NC(=O)c3ccc(C(=O)N4CCC(C(=O)c5ccc(F)cc5F)CC4)nc3)nc2)cc1 [Compound 469, N-(5-(4-cyanophenoxy)pyridin-2-yl)-6-(4-(2,4-difluorobenzoyl)piperidine-1-carbonyl)nicotinamide] | < 500
19 | O=C(NC1CCN(Cc2ccc(OC(F)(F)F)cc2)CC1)c1ccc(C(=O)N2CCC(S(=O)(=O)c3ccc(F)cc3)CC2)nc1 [Compound 470, 6-(4-(4-fluorophenylsulfonyl)piperidine-1-carbonyl)-N-(1-(4-(trifluoromethoxy)benzyl)piperidin-4-yl)nicotinamide] | < 500
20 | N#Cc1ccc(CN2CCC(NC(=O)c3ccc(C(=O)N4CCC(S(=O)(=O)c5ccc(F)cc5)CC4)nc3)CC2)cc1 [Compound 471, N-(1-(4-cyanobenzyl)piperidin-4-yl)-6-(4-(4-fluorophenylsulfonyl)piperidine-1-carbonyl)nicotinamide] | 1000 to 5000
21 | N#Cc1ccc(Oc2ccc(NC(=O)c3ccc(C(=O)N4CCC(S(=O)(=O)c5ccc(F)cc5)CC4)nc3)cn2)cc1 [Compound 472, N-(6-(4-cyanophenoxy)pyridin-3-yl)-6-(4-(4-fluorophenylsulfonyl)piperidine-1-carbonyl)nicotinamide] | 1000 to 5000
22 | CC(=O)c1ccc(Oc2ccc(NC(=O)c3ccc(C(=O)N4CCC(S(=O)(=O)c5ccc(F)cc5)CC4)nc3)cn2)cc1 [Compound 473, N-(6-(4-acetylphenoxy)pyridin-3-yl)-6-(4-(4-fluorophenylsulfonyl)piperidine-1-carbonyl)nicotinamide] | 1000 to 5000
23 | COc1ccc(CN2CCC(NC(=O)c3ccc(C(=O)N4CCC(S(=O)(=O)c5ccc(F)cc5)CC4)nc3)CC2)cc1 [Compound 474, 6-(4-(4-fluorophenylsulfonyl)piperidine-1-carbonyl)-N-(1-(4-methoxybenzyl)piperidin-4-yl)nicotinamide] | 1000 to 5000
24 | COc1cccc(CN2CCC(NC(=O)c3ccc(C(=O)N4CCC(S(=O)(=O)c5ccc(F)cc5)CC4)nc3)CC2)c1 [Compound 475, 6-(4-(4-fluorophenylsulfonyl)piperidine-1-carbonyl)-N-(1-(3-methoxybenzyl)piperidin-4-yl)nicotinamide] | 1000 to 5000
25 | N#Cc1ccc(Oc2ccc(NC(=O)c3ccc(C(=O)N4CCN(Cc5ccc(F)cc5)CC4)nc3)cn2)cc1 [Compound 476, N-(6-(4-cyanophenoxy)pyridin-3-yl)-6-(4-(4-fluorobenzyl)piperazine-1-carbonyl)nicotinamide] | < 500
26 | CC(=O)c1ccc(Oc2ccc(NC(=O)c3ccc(C(=O)N4CCN(Cc5ccc(F)cc5)CC4)nc3)cn2)cc1 [Compound 477, N-(6-(4-acetylphenoxy)pyridin-3-yl)-6-(4-(4-fluorobenzyl)piperazine-1-carbonyl)nicotinamide] | < 500
27 | COc1ccc(C(=O)C2CCN(C(=O)c3ccc(C(=O)Nc4ccc(Oc5ccc(C#N)cc5)nc4C)cn3)CC2)cc1 [Compound 478, N-(6-(4-cyanophenoxy)-2-methylpyridin-3-yl)-6-(4-(4-methoxybenzoyl)piperidine-1-carbonyl)nicotinamide] | < 500
28 | Cc1nc(Oc2ccc(C#N)cc2)ccc1NC(=O)c1ccc(C(=O)N2CCC(C(=O)c3ccc(F)cc3F)CC2)nc1 [Compound 479, N-(6-(4-cyanophenoxy)-2-methylpyridin-3-yl)-6-(4-(2,4-difluorobenzoyl)piperidine-1-carbonyl)nicotinamide] | < 500
29 | COc1ccc(C(=O)C2CCN(C(=O)c3ccc(C(=O)Nc4ccc(Oc5ccc(C(=O)N(C)C)cc5)nc4)cn3)CC2)cc1 [Compound 480, N-(6-(4-(dimethylcarbamoyl)phenoxy)pyridin-3-yl)-6-(4-(4-methoxybenzoyl)piperidine-1-carbonyl)nicotinamide] | < 500
30 | CN(C)C(=O)c1ccc(Oc2ccc(NC(=O)c3ccc(C(=O)N4CCC(C(=O)c5ccc(F)cc5F)CC4)nc3)cn2)cc1 [Compound 481, 6-(4-(2,4-difluorobenzoyl)piperidine-1-carbonyl)-N-(6-(4-(dimethylcarbamoyl)phenoxy)pyridin-3-yl)nicotinamide] | < 500
31 | COc1ccc(C(=O)C2CCN(C(=O)c3ccc(C(=O)N(C)C4CCN(Cc5ccc(C#N)cc5)CC4)cn3)CC2)cc1 [Compound 482, N-(1-(4-cyanobenzyl)piperidin-4-yl)-6-(4-(4-methoxybenzoyl)piperidine-1-carbonyl)-N-methylnicotinamide] | < 500
32 | COc1ccc(C(=O)C2CCN(C(=O)c3ccc(C(=O)N(C)C4CCN(Cc5ccc(OC(F)(F)F)cc5)CC4)cn3)CC2)cc1 [Compound 483, 6-(4-(4-methoxybenzoyl)piperidine-1-carbonyl)-N-methyl-N-(1-(4-(trifluoromethoxy)benzyl)piperidin-4-yl)nicotinamide] | < 500
